In paper PMC9386018, “A lymphatic-absorbed multi-targeted kinase inhibitor for myelofibrosis therapy” (Nature Communications, 2022):
Values joined by “and” are separate entries in the source; they are usually repeats but may differ in a detail not shown here. Equal values may be shown once.

Legend:
[1] = system: phosphorylated AKT (pAKT; pS473) in SET-2 cells; experiment: Phospho-flow cytometry of pAKT in SET-2 cells; format: cell-based, human; settings: 5 μM, 16 h
Procedure: (§1) The human megakaryoblastic cell line, SET-2 (ATCC), was maintained in RPMI 1640 supplemented with 20% FBS and incubated for 16 h at 10^6 cells mL^−1 with LP-182 or vehicle (DMSO; dimethyl sulfoxide), then washed in ice-cold PBS, and collected for flow cytometry analysis. Single-cell suspensions of mouse spleen were prepared from MPL^W515L MF mice (below) in RPMI 1640 supplemented with 5% FCS. Red blood cells were lysed by ammonium chloride-mediated red cell lysis (RCL) buffer and passed through a nylon mesh, and then cells were counted. For intracellular phospho-protein staining, SET-2 or spleen cells were fixed and then permeabilized using BD Phospho-flow fixation buffer and Perm-Buffer III (BD biosciences) according to the manufacturer’s protocol. Intracellular phospho-protein staining was performed using fluorochrome-conjugated antibodies, pAKT (pS473)-Alexa Fluor 647 (MB89-61) or pERK1/2 (pT202/pY204)-Alexa Fluor 647 (20 A). All phospho-flow antibodies were purchased from BD Biosciences. […] Flow cytometry was performed on a FACS Fortessa (Becton, Dickinson and Co.) using FACSDiVa software, and data analyzed using FlowJo software (Tree Star). […]

[2] = system: pAKT (pS473) in splenocytes; experiment: MPL^W515L MF mouse model: pAKT in splenocytes by flow cytometry; format: in vivo; settings: MPL^W515L mice, oral 400 mg kg^−1 daily, 28 d
Procedure: as §1, with “A).” for “A). All phospho-flow antibodies were purchased from BD Biosciences.”
Generation of the MPL^W515L mutant MF mouse model was similar to previously described methods. […] Development of MF was evaluated by spleen volumes using MRI beginning ~14 d following bone marrow transplantation (BMT) as outlined below, continuing weekly until end of the study. […]

[3] = biological target: Target kinase isoforms (PI3K, mTOR, RAF, MEK) (Homo sapiens, UniProt P36507); experiment: Target kinase isoforms 10-point IC50 determination (Supplementary Fig. 7); format: biochemical; settings: MEK2, replicates
Outline: (§2)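 Kinase activity across a 10-point dose series was corrected and normalized to vehicle-treated controls. IC50 values were derived by non-linear regression of percent activity. Kinome-wide percent inhibition was averaged over replicates.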

[4] = biological target: Target kinase isoforms (PI3K, mTOR, RAF, MEK) (Homo sapiens, UniProt P15056); experiment: as above; format: biochemical; settings: BRAF
Outline: as §2

[5] = Microsomal stability; format: in vitro ADME; settings: mouse, liver microsomes; ~1 µM, NADPH, 37 °C; read-out: t1/2 in murine liver microsomes
Procedure: Quantitative determination of LP-182 stability in murine liver microsomes was performed by the University of Michigan Pharmacokinetics Core. […]; in 100 mM phosphate buffer, 3 mM MgCl2) to a final concentration of […], and then reactions were sampled over 60 min. Aliquots were removed at the designated time points, quenched by addition of 4 volumes of cold acetonitrile, then centrifuged at 10,000 x g for 5 min to pellet protein precipitates. […] The natural log peak area ratio of compound to internal standard (Acmpd/AIstd) was plotted against time to determine pharmacokinetic properties of microsomal stability. All analyses, data processing, and calculations were performed and provided by the core. Data was generated from a single independent experiment.

[6] = concentration 0.495 nM, 0.000495 µM
[7] = concentration 1.52 nM, 0.00152 µM
[8] = concentration 4.57 nM, 0.00457 µM
[9] = concentration 41.2 nM, 0.0412 µM

Sequence of Target kinase isoforms (PI3K, mTOR, RAF, MEK) (Homo sapiens, UniProt P36507) (P36507 whole entry, canonical isoform): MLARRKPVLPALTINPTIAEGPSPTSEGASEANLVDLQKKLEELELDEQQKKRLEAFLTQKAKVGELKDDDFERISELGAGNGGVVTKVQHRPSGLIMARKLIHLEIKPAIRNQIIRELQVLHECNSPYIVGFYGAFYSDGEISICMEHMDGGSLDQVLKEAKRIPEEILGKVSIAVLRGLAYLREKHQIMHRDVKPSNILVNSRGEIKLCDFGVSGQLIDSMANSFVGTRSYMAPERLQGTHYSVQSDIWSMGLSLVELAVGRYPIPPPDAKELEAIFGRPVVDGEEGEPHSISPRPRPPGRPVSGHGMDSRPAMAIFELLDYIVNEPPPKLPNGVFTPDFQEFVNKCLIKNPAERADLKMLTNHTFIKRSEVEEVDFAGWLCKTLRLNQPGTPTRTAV
Sequence of Target kinase isoforms (PI3K, mTOR, RAF, MEK) (Homo sapiens, UniProt P15056) (P15056 whole entry, canonical isoform): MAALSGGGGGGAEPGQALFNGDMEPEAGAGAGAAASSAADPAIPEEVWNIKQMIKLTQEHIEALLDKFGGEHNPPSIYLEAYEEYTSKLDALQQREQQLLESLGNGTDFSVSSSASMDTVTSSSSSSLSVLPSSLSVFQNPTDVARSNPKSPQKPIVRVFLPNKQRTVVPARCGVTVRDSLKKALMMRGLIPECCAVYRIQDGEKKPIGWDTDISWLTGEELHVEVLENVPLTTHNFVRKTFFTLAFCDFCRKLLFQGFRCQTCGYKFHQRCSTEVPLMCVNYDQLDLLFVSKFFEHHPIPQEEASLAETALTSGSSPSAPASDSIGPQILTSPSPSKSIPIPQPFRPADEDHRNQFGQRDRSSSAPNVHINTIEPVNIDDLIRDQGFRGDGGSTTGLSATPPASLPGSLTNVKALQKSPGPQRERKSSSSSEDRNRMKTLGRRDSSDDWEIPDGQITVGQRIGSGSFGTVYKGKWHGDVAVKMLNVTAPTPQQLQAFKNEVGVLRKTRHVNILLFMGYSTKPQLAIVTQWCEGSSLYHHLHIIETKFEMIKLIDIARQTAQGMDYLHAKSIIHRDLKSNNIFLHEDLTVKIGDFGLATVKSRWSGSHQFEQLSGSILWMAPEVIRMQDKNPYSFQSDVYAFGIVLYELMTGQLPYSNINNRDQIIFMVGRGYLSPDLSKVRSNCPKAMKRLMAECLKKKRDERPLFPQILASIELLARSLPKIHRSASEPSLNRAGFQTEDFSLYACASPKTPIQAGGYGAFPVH

O=C(NOCCOCCOCCOCCC(=O)N1CCN(c2cnc3ccc(-c4cnc(Cl)c(NS(=O)(=O)c5ccc(F)cc5)c4)cc3n2)CC1)c1ccc(F)c(F)c1Nc1ccc(I)cc1F [LP-182, N-(2-(2-(2-(3-(4-(7-(6-chloro-5-((4-fluorophenyl)sulfonamido)pyridin-3-yl)quinoxalin-2-yl)piperazin-1-yl)-3-oxopropoxy)ethoxy)ethoxy)ethoxy)-3,4-difluoro-2-((2-fluoro-4-iodophenyl)amino)benzamide]
decrease of downstream activation of AKT [1]: ~ 50%
active AKT level in splenocytes [2]: reduced active AKT and ERK1/2 levels to those comparable to healthy control mice
activity at 0.000495 µM ([3]; concentration 0.495 nM): 90%
Kinase Activity (%) [3, 6]: 96% (2×) and 93% and 95%
activity at 0.00152 µM ([3]; concentration 1.52 nM): 89%
Kinase Activity (%) [3, 7]: 91% and 95% and 92% and 94%
activity at 0.00457 µM ([3]; concentration 4.57 nM): 87%
Kinase Activity (%) [3, 8]: 96% and 91% and 88%
activity at 0.0412 µM ([3]; concentration 41.2 nM): 68%
Kinase Activity (%) [3, 9]: 64% and 78% (2×) and 82% and 72%
Kinase Activity (%) ([3]; concentration 123 nM, 0.123 µM): 45% and 36% and 54% and 60% and 51% and 56%
activity at 1.11 µM ([3]; concentration 1110 nM): 6%
Kinase Activity (%) ([3]; concentration 1110 nM, 1.11 µM): 8% and 12% (2×) and 10%
Kinase Activity (%) ([3]; concentration 3330 nM, 3.33 µM): 1% (3×) and 2% (2×) and 0%
Kinase Activity (%) ([3]; concentration 10000 nM, 10 µM): 2% (2×) and 0% (2×) and -1% and 1%
activity at 0.000495 µM ([4]; concentration 0.495 nM): 100%
Kinase Activity (%) BRAF [4, 6]: 102% and 96% and 94% and 93%
activity at 0.00152 µM ([4]; concentration 1.52 nM): 101%
Kinase Activity (%) BRAF [4, 7]: 98% and 95% and 94%
activity at 0.00457 µM ([4]; concentration 4.57 nM): 90%
Kinase Activity (%) BRAF [4, 8]: 94% and 95% and 98% and 89% and 93%
Kinase Activity (%) BRAF [4, 9]: 49% and 38% and 54% and 59% and 53%
Kinase Activity (%) BRAF ([4]; concentration 1110 nM, 1.11 µM): -5% and -3% and 2% and 4% and 5%
Kinase Activity (%) BRAF ([4]; concentration 3330 nM, 3.33 µM): -5% and 1% and 4%
half-life [5]: ~8 min
